Here are results for 3 compounds from ChEMBL document CHEMBL4396913, “Synthesis and biological evaluation of hybrid quinolone-based quaternary ammonium antibacterial agents” (Eur J Med Chem, 2019).

In data set [1] the test system is Pseudomonas aeruginosa. As to the kind of experiment: Antibacterial activity against Pseudomonas aeruginosa ATCC 9027 cultured in MH medium assessed as reduction in bacterial growth incubated for 48 hrs by microbroth dilution method. The class given is functional. Particulars: ATCC 9027, 48 h.
In data set [2] the test system is Streptococcus pneumoniae. As to the kind of experiment: Bactericidal activity against Streptococcus pneumoniae cultured in MH medium assessed as reduction in bacterial survival incubated for 48 hrs by microbroth dilution method. The class given is functional.
Data set [3] has as its system Bacillus spizizenii. As to the kind of experiment: Bactericidal activity against Bacillus subtilis ATCC 6633 cultured in MH medium assessed as reduction in bacterial survival incubated for 48 hrs by microbroth dilution method. The class given is functional. Particulars: ATCC 6633, 48 h. (Dilution methods test growth across graded concentrations, often in twofold steps.)

Data set [4] concerns Pseudomonas aeruginosa. As to the kind of experiment: Bactericidal activity against Pseudomonas aeruginosa ATCC 9027 cultured in MH medium assessed as reduction in bacterial survival incubated for 48 hrs by microbroth dilution method. The data set is classed as functional. Particulars: ATCC 9027, 48 h.
In data set [5] the test system is Serratia marcescens. As to the kind of experiment: Bactericidal activity against Serratia marcescens ATCC 12795 cultured in MH medium assessed as reduction in bacterial survival incubated for 48 hrs by microbroth dilution method. The data set is classed as functional. Particulars: ATCC 12795, 48 h.
The subject of data set [6] is Escherichia coli. As to the kind of experiment: Antibacterial activity against Escherichia coli ATCC 8739 cultured in MH medium assessed as reduction in bacterial growth incubated for 48 hrs by microbroth dilution method. The class given is functional. Particulars: ATCC 8739, 48 h.
Data set [7] relates to Enterococcus hirae. As to the kind of experiment: Antibacterial activity against Enterococcus hirae ATCC 1052 cultured in BHI medium assessed as reduction in bacterial growth incubated for 48 hrs by microbroth dilution method. The data set is classed as functional. Particulars: ATCC 1052, 48 h.
Data set [8] concerns Streptococcus pneumoniae. As to the kind of experiment: Antibacterial activity against Streptococcus pneumoniae cultured in MH medium assessed as reduction in bacterial growth incubated for 48 hrs by microbroth dilution method. The class given is functional.
Data set [9] deals with Staphylococcus aureus. As to the kind of experiment: Antibacterial activity against Staphylococcus aureus ATCC 6538 cultured in MH medium assessed as reduction in bacterial growth incubated for 48 hrs by microbroth dilution method. The class given is functional. Particulars: ATCC 6538, 48 h.
The test system of data set [10] is Staphylococcus aureus. As to the kind of experiment: Bactericidal activity against Staphylococcus aureus ATCC 6538 cultured in MH medium assessed as reduction in bacterial survival incubated for 48 hrs by microbroth dilution method. The data set is classed as functional. Particulars: ATCC 6538, 48 h.
Data set [11] has as its system Proteus vulgaris. As to the kind of experiment: Bactericidal activity against Proteus vulgaris NCTC 4635 cultured in MH medium assessed as reduction in bacterial survival incubated for 48 hrs by microbroth dilution method. The class given is functional. Particulars: NCTC 4635, 48 h.
Data set [12] concerns Proteus vulgaris. As to the kind of experiment: Antibacterial activity against Proteus vulgaris NCTC 4635 cultured in MH medium assessed as reduction in bacterial growth incubated for 48 hrs by microbroth dilution method. Particulars: NCTC 4635, 48 h. The class given is functional.
Data set [13] has as its system Staphylococcus aureus. As to the kind of experiment: Bactericidal activity against methicillin resistant Staphylococcus aureus 6347 cultured in MH medium assessed as reduction in bacterial survival incubated for 48 hrs by microbroth dilution method. The class given is functional. Particulars: Staphylococcus aureus, 6347, 48 h.
Data set [14] relates to Staphylococcus epidermidis. As to the kind of experiment: Antibacterial activity against Staphylococcus epidermidis ATCC 14990 cultured in MH medium assessed as reduction in bacterial growth incubated for 48 hrs by microbroth dilution method. The data set is classed as functional. Particulars: ATCC 14990, 48 h.
For data set [15], the system named is Serratia marcescens. As to the kind of experiment: Antibacterial activity against Serratia marcescens ATCC 12795 cultured in MH medium assessed as reduction in bacterial growth incubated for 48 hrs by microbroth dilution method. The class given is functional. Particulars: ATCC 12795, 48 h.
The subject of data set [16] is Staphylococcus aureus. As to the kind of experiment: Antibacterial activity against methicillin resistant Staphylococcus aureus 6347 cultured in MH medium assessed as reduction in bacterial growth incubated for 48 hrs by microbroth dilution method. Particulars: Staphylococcus aureus, 6347, 48 h. The data set is classed as functional.
The test system of data set [17] is Staphylococcus aureus. As to the kind of experiment: Bactericidal activity against methicillin resistant Staphylococcus aureus N315 cultured in MH medium assessed as reduction in bacterial survival incubated for 48 hrs by microbroth dilution method. The data set is classed as functional. Particulars: N315, 48 h.
The test system of data set [18] is Escherichia coli. As to the kind of experiment: Bactericidal activity against Escherichia coli ATCC 8739 cultured in MH medium assessed as reduction in bacterial survival incubated for 48 hrs by microbroth dilution method. The data set is classed as functional. Particulars: ATCC 8739, 48 h.
For data set [19], the system named is Staphylococcus aureus. As to the kind of experiment: Antibacterial activity against methicillin resistant Staphylococcus aureus N315 cultured in MH medium assessed as reduction in bacterial growth incubated for 48 hrs by microbroth dilution method. Particulars: N315, 48 h. The data set is classed as functional.
For data set [20], the system named is Staphylococcus epidermidis. As to the kind of experiment: Bactericidal activity against Staphylococcus epidermidis ATCC 14990 cultured in MH medium assessed as reduction in bacterial survival incubated for 48 hrs by microbroth dilution method. The data set is classed as functional. Particulars: ATCC 14990, 48 h.
For data set [21], the system named is Bacillus spizizenii. As to the kind of experiment: Antibacterial activity against Bacillus subtilis ATCC 6633 cultured in MH medium assessed as reduction in bacterial growth incubated for 48 hrs by microbroth dilution method. The class given is functional. Particulars: ATCC 6633, 48 h.
Data set [22] concerns Enterococcus hirae. As to the kind of experiment: Bactericidal activity against Enterococcus hirae ATCC 1052 cultured in BHI medium assessed as reduction in bacterial survival incubated for 48 hrs by microbroth dilution method. The class given is functional. Particulars: ATCC 1052, 48 h.
The test system of data set [23] is HEK293. As to the kind of experiment: Cytotoxicity against human HEK293 cells assessed as changes in cell morphology upto 20 uM incubated for 72 hrs by MTT assay. Particulars: hek293, 72 h. The class given is cell-based.
Data set [24] in a line: Lipophilicity, log k of the compound at 100 ug/ml by micellar electrokinetic chromatography. The class given is physicochemical.
In data set [25] the test system is HEK293. As to the kind of experiment: Cytotoxicity against human HEK293 cells assessed as cell viability upto 20 uM incubated for 72 hrs by MTT assay. The class given is cell-based. Particulars: hek293, 72 h. On the technique in general: Tetrazolium assays rely on reduction of a dye to a coloured formazan, in cell work by metabolically active cells.
For data set [26], the system named is Staphylococcus epidermidis. As to the kind of experiment: Bactericidal activity against methicillin resistant Staphylococcus epidermidis ATCC 13199 cultured in MH medium assessed as reduction in bacterial survival incubated for 48 hrs by microbroth dilution method. The data set is classed as functional. Particulars: ATCC 13199, 48 h.
Data set [27] deals with Staphylococcus epidermidis. As to the kind of experiment: Antibacterial activity against methicillin resistant Staphylococcus epidermidis ATCC 13199 cultured in MH medium assessed as reduction in bacterial growth incubated for 48 hrs by microbroth dilution method. The class given is functional. Particulars: ATCC 13199, 48 h.

For orientation: MIC means the lowest concentration that inhibits growth of the organism. A word on the MBC: it is the smallest concentration meeting the test's criterion for killing.

≈ marks a conversion by molar mass, not a printed value. Where only a bound is given, the exact number is not on record here.

Consider `COc1c(N2C[C@@H]3CCCN[C@@H]3C2)c(F)cc2c(=O)c(C(=O)O)cn(C3CC3)c12` [MOXIFLOXACIN], for which the MIC in the data set on Pseudomonas aeruginosa [1] was found to be 16 µg/mL (≈ 39.9 µM); in the data set with Escherichia coli [6] it was 0.125 µg/mL (≈ 0.311 µM); with Enterococcus hirae [7], 16 µg/mL (≈ 39.9 µM); in the data set on Streptococcus pneumoniae [8], 16 µg/mL (≈ 39.9 µM); with Staphylococcus aureus [9], 0.125 µg/mL (≈ 0.311 µM); with Proteus vulgaris [12] it was 0.004 µg/mL (≈ 0.00996 µM). Further, the MIC was found to be 0.063 µg/mL (≈ 0.157 µM) in data set [14]; 0.25 µg/mL (≈ 0.623 µM) in the data set on Serratia marcescens [15]; 0.063 µg/mL (≈ 0.157 µM) in the data set with Staphylococcus aureus [16]; 0.125 µg/mL (≈ 0.311 µM) in the data set with Staphylococcus aureus [19]; 0.032 µg/mL (≈ 0.0797 µM) in the data set with Bacillus spizizenii [21]. The MBC in the data set with Streptococcus pneumoniae [2] was 64 µg/mL (≈ 159 µM); with Bacillus spizizenii [3], 0.032 µg/mL (≈ 0.0797 µM); with Pseudomonas aeruginosa [4], 16 µg/mL (≈ 39.9 µM); in the data set with Serratia marcescens [5], 0.5 µg/mL (≈ 1.25 µM); with Staphylococcus aureus [10] it was 0.125 µg/mL (≈ 0.311 µM); in the data set on Proteus vulgaris [11] it was 0.008 µg/mL (≈ 0.0199 µM). The MBC in the data set with Staphylococcus aureus [13] was 0.063 µg/mL (≈ 0.157 µM); with Staphylococcus aureus [17] it was 0.25 µg/mL (≈ 0.623 µM); with Escherichia coli [18], 0.25 µg/mL (≈ 0.623 µM); in data set [20] it was 0.125 µg/mL (≈ 0.311 µM); in the data set on Enterococcus hirae [22] it was 32 µg/mL (≈ 79.7 µM).

Consider `CCn1cc(C(=O)O)c(=O)c2cnc(N3CC[N+]4(CC3)CN3C(=N4)C(C(=O)O)=Cc4ccccc43)nc21.[Cl-]`, for which the Activity result in the data set on HEK293 [23] and with HEK293 [25] was “Non-Toxic” in each case. For the same compound, the MIC with Pseudomonas aeruginosa [1] is 128 µg/mL; with Escherichia coli [6], 16 µg/mL; with Enterococcus hirae [7] it was over 512 µg/mL; in the data set with Streptococcus pneumoniae [8], over 512 µg/mL; with Staphylococcus aureus [9], 512 µg/mL; with Proteus vulgaris [12], 16 µg/mL. The MIC in [14] was found to be 256 µg/mL; with Serratia marcescens [15] it was 128 µg/mL; in the data set with Staphylococcus aureus [16], 256 µg/mL; with Staphylococcus aureus [19], 512 µg/mL; in the data set with Bacillus spizizenii [21] it was 64 µg/mL; in [27] it was 8 µg/mL. The MBC turned out to be 64 µg/mL with Bacillus spizizenii [3]; 128 µg/mL in the data set on Pseudomonas aeruginosa [4]; 128 µg/mL with Serratia marcescens [5]; 16 µg/mL in [26]; 512 µg/mL with Staphylococcus aureus [10]; 16 µg/mL with Proteus vulgaris [11]. Moreover, the MBC with Staphylococcus aureus [13] is 256 µg/mL; in the data set with Staphylococcus aureus [17], 512 µg/mL; with Escherichia coli [18], 16 µg/mL; in data set [20] it was 256 µg/mL. Besides, in [24], the “log K” value is -0.4434.

In the case of `CCn1cc(C(=O)O)c(=O)c2cnc(N3CC[N+]4(CC3)CN3C(C)=CC(C)=C(C(=O)O)C3=N4)nc21.[Cl-]`, the Activity result with HEK293 [23] and with HEK293 [25] was “Non-Toxic” each time. The MIC in the data set with Pseudomonas aeruginosa [1] was over 512 µg/mL; with Escherichia coli [6], over 512 µg/mL; in the data set on Enterococcus hirae [7] it was over 512 µg/mL; in the data set on Streptococcus pneumoniae [8] it was over 512 µg/mL; in the data set with Staphylococcus aureus [9] it was over 512 µg/mL; with Proteus vulgaris [12], 256 µg/mL. For the same compound, the MIC (in data set [14]; with Serratia marcescens [15]; with Staphylococcus aureus [16]; in the data set with Staphylococcus aureus [19]; with Bacillus spizizenii [21]; in data set [27]) was over 512 µg/mL throughout. Also, in data set [24], the “log K” value is given as -0.5725. Also, the MBC with Proteus vulgaris [11] was over 512 µg/mL.
